US12673063B2, “Methods and materials for treatment of fibrosis” (Massachusetts Eye and Ear Infirmary, priority 2020, dated 2026)

How the values were obtained:
[1] = system: human lung fibroblasts (HLF); experiment: CyQUANT Direct Cell Proliferation Assay, HLF; format: cell-based; conditions: 72 hours
Text: We conducted mechanistic studies in cell culture to examine the cellular and molecular mechanisms underlying the robust effects of RUNX1 inhibition in the protection against bleomycin-induced lung injury. We tested the effect of RUNX1 inhibition on the proliferation of a human alveolar basal epithelial cell line (A549), primary human-derived pulmonary alveolar epithelial cells (HPAEpi), and in human-derived primary culture lung fibroblasts (HLF). For specific analyses we used escalating doses of Ro24-7429 (50-200 μM), Ro5-3335 (150 μM), pirfenidone (500 μg/ml) and nintedanib (5 μM), the latter two are currently approved drugs for IPF.

[2] = system: human immunodeficiency virus (HIV); conditions: patients infected with HIV; cited from earlier work
[3] = system: ACE2 protein in HPAEpi cells; experiment: TGF-β1 and TNF-α induced ACE2 protein, Western blot, HPAEpi cells; format: cell-based, human; conditions: pretreatment
Protocol: (§1) Human Pulmonary Alveolar Epithelial cells (HPAEpiCs) were purchased from ScienCell (Carlsbad, CA, USA) and cultured in alveolar epithelial cell medium (ScienCell) supplemented with 2% fetal bovine serum (FBS), epithelial cell growth supplement, 100 U/mL penicillin G, and 100 µg/mL streptomycin. The cells were cultured and maintained in 6-well plates for experimental purposes.
(§2) Protein concentration was determined by Pierce Bicinchonic acid (BCA) protein assay kit (ThermoFisher; 23227) according to the manufacturer's instructions. 20 μg of total cell lysates were prepared in 4 μL 1M 1,4-dithiothreitol (DTT; Sigma Aldrich) and 10 μL Laemmli buffer (Boston Bioproducts) to a final volume of 40 μL and denatured 5 min at 90° C. Samples were separated electrophoretically for 1 h at 70 V using 4-20% pre-cast gradient gels (Mini-PROTEAN TGX, Bio-Rad) and SDS-Tris-Glycine buffer (Bio-rad). Proteins were transferred to 0.45 μm nitrocellulose membranes for 1 h at 70 V in ice cold […] Tris-Glycine buffer (Bio-rad). Membranes were blocked for 1 h with Odyssey Blocking Buffer (LI-COR Biosciences). […]
(§3) Additionally, we studied the effect of RUNX1 inhibition on the expression of ACE2 expression in TGF-β1 and TNF-α stimulated HPAEpi cells. […] FURIN protein levels were also observed to go down by 70% in the Ro24-7429 treated mice as evaluated by Western blot (FIGS. 4E-F).

FURIN mRNA in HMEC-Ls = experiment: FURIN mRNA, qPCR, TNF-α-stimulated HMEC-Ls; format: cell-based, human; conditions: TNF-α 5 ng/ml
RUNX1 mRNA in HMEC-Ls = experiment: TNF-α-induced RUNX1 mRNA, qRT-PCR, HMEC-Ls; format: cell-based, human; conditions: 75 μM, TNF-α 5 ng/ml, 48 hours
[4] = system: ACE2 and FURIN in lung tissue; experiment: ACE2 staining and FURIN protein in bleomycin-injured lung; format: in vivo, C57BL/6J mice
Protocol: Bleomycin sulphate (Sigma-Aldrich) was dissolved in sterile 0.9% saline and administered as a single dose of 0.05 units in a total volume of 50 μl in saline solution per animal intratracheally (IT). Control animals received 0.05 mL saline alone. A preventative regimen was chosen and each animal received either Ro24-7429 drug 70 mg/kg or vehicle every other day 7 days before the induction of the model and continued until the end of the experiment for 1 week or 2 weeks. All animals received intratracheal instillations of either bleomycin on day 0 as previously described (52-55). A separate experiment was performed with similar drug-vehicle treatments and IT saline instillation for controls. The surgeon performing IT instillations was masked to the identity of the treatment groups. […]
Protein concentration was determined by Pierce Bicinchonic acid (BCA) protein assay kit (ThermoFisher; 23227) according to the manufacturer's instructions. […]
as §3

[5] = system: N-Cadherin in HPAEpi cells; experiment: TGF-β1-induced N-Cadherin upregulation, Western blot, HPAEpi; format: cell-based, human; conditions: 150 μM and 200 μM, 24 hours prior to TGF-β1 exposure
Protocol: as §1, §2
We evaluated the effect of RUNX1 inhibition on the expression of fibrosis markers induced by TGF-β1, a critical mediator of PF (30), in A549 cells at 24, 48 and 72 hours. […]

[6] = system: RUNX1 and fibrosis markers in lung tissue; experiment: Expression of RUNX1 and fibrosis markers in bleomycin-injured lung (Western blot, qRT-PCR, immunostaining); format: in vivo, C57BL/6J mice
Protocol: Bleomycin sulphate (Sigma-Aldrich) was dissolved in sterile 0.9% saline and administered as a single dose of 0.05 units in a total volume of 50 μl in saline solution per animal intratracheally (IT). Control animals received 0.05 mL saline alone. A preventative regimen was chosen and each animal received either Ro24-7429 drug 70 mg/kg or vehicle every other day 7 days before the induction of the model and continued until the end of the experiment for 1 week or 2 weeks. All animals received intratracheal instillations of either bleomycin on day 0 as previously described (52-55). A separate experiment was performed with similar drug-vehicle treatments and IT saline instillation for controls. The surgeon performing IT instillations was masked to the identity of the treatment groups.
Paraffin embedded sections were processed for immunofluorescence using the following antibodies: anti-RUNX1 (1:100; LS-B13948; Lifespan Biosciences, Seattle, WA), anti-human a-SMA antibody (1:200; NB500-170; Novus Biologicals, Ontario, Canada), anti-Iba1 antibody (1:100; ab5076; Abcam, Cambridge, United Kingdom), anti-Ly6g antibody (1:100; ab25377; Abcam, Cambridge, United Kingdom), and Isolectin GS-IB4 Alexa Fluoro 594 Conjugate (1:250; 121413; Invitrogen, Carlsbad, CA). For heat-induced antigen retrieval the slides were boiled in 10 mM sodium citrate buffer (pH 6.0) and then maintained at a sub-boiling temperature (95-100° C.) for 20 minutes and subsequently cooled on the bench top for 30 minutes. Slides were washed with distilled water and permeabilized with 0.5% Triton X-100 in PBS for 5 minutes and blocked (10% goat serum in PBS) for 1 hour at RT. The primary antibody was prepared in antibody dilution buffer (5% goat serum) and samples were incubated overnight with the antibody solution at 4° C. Sections were washed with PBS and incubated with goat anti-rabbit Alexa Fluor 594 secondary antibody (1:500; A-11012; Invitrogen, Carlsbad, CA) for 2 hours at room temperature. Slides were mounted and visualized using Prolong Gold Antifade Reagent with DAPI (P36935, Invitrogen). Images were obtained using an EVOS FL automated stage live cell imaging system (Life Technologies, Cambridge, MA).
Protein concentration was determined by Pierce Bicinchonic acid (BCA) protein assay kit (ThermoFisher; 23227) according to the manufacturer's instructions. 20 μg of total cell lysates were prepared in 4 μL 1M 1,4-dithiothreitol (DTT; Sigma Aldrich) and 10 μL Laemmli buffer (Boston Bioproducts) to a final volume of 40 μL and denatured 5 min at 90° C. Samples were separated electrophoretically for 1 h at 70 V using 4-20% pre-cast gradient gels (Mini-PROTEAN TGX, Bio-Rad) and SDS-Tris-Glycine buffer (Bio-rad). Proteins were transferred to 0.45 μm nitrocellulose membranes for 1 h at 70 V in ice cold […] Tris-Glycine buffer (Bio-rad). Membranes were blocked for 1 h with Odyssey Blocking Buffer (LI-COR Biosciences). Then incubated with primary antibodies for 3 hours RT or overnight at 4 degrees Celsius and then washed 3× with TBS-T and incubated with secondary antibodies IRDye 800CW donkey anti-mouse for 1 hour and washed 3× with TBS-T.
Mice were treated as described previously before euthanasia. Lung samples were collected for qRT-PCR analysis and tissues lysed by homogenization. RNA was extracted using RNeasy Mini Kits (QIAGEN), as per the manufacturer's instructions for tissue samples. Transcription into complementary DNA and analysis were performed as stated previously. Primers for selected genes (Table 1) were purchased from Integrated DNA Technologies (Coralville, IA, USA).

[7] = bleomycin mice, lung tissue, day 14

With `CNC1=Nc2ccc(Cl)cc2C(c2ccc[nH]2)=NC1` [Ro24-7429, 3H-1,4-Benzodiazepin-2-amine, 7-chloro-N-methyl-5-(1H-pyrrol-2-yl)-] as the compound, how does the reduction in proliferation ([1]; 50 μM) read?
Its reduction in proliferation is 30%.

What about the reduction in proliferation ([1]; 200 μM) of the same compound?
Its reduction in proliferation is 55%.

And the “antiviral activity in clinical trials” value [2]?
Its value is “no detectable antiviral activity”.

And the “safety profile in clinical trials” value [2]?
The value was “acceptable safety profile”.

And the “TGF-β1 and TNFα induced ACE2 protein levels” value [3]?
Its value is “significantly reduced”.

What about the “reduction of FURIN mRNA expression” value (FURIN mRNA in HMEC-Ls) of the same compound?
The value was 70%.

What about the “reduction of TNF-α-induced upregulation of RUNX1 mRNA” value (RUNX1 mRNA in HMEC-Ls) of the same compound?
Its value is 50%.

What about the “decrease of FURIN protein levels” value ([4]; bleomycin mice lungs, Western blot) of the same compound?
Its value is 70%.

What about the “ACE2 staining in the lung” value ([4]; bleomycin mouse model, 2-week time point, immunofluorescence) of the same compound?
Its value is “markedly reduced”.

And the “TGF-β1-induced N-Cadherin upregulation” value [5]?
Its value is “effectively prevented”.

What about the α-SMA immunostaining localization ([6]; 70 mg/kg, bleomycin mice) of the same compound?
Its α-SMA immunostaining localization is “localized only to vessels”.

What about the “expression of E-Cadherin, Western blot” value [6, 7] of the same compound?
Its value is “preserved”.

And the “expression of RUNX1, Western blot” value [6, 7]?
Its value is “reduced”.

What about the “expression of fibronectin, Western blot” value [6, 7] of the same compound?
Its value is “reduced”.

And the “RUNX1 upregulation, immunofluorescence and qRT-PCR” value ([6]; bleomycin-injured mice, day 14)?
The value was “significantly attenuated”.

And the “upregulation of fibrosis markers triggered by bleomycin” value ([6]; compared to vehicle treated mice, day 14)?
The value was “blunted”.
